Experimental data as given in ChEMBL document CHEMBL1201862, “PubChem BioAssay data set” (2004).
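48-hour exposure; five concentrations; linearly interpolated endpoints. GI50: concentration for 50% inhibition of growth.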 Calls of active or inactive are those of the source. No stated cut-off is given here; in the data, active = GI50 up to about 1.1 µM and inactive = higher.

Key:
Test in all cases: growth of human tumour cells (NCI), 48 h
RXF 393 = system: RXF 393
COLO 205 = system: COLO 205
PC-3 = system: PC-3
HT-29 = system: HT-29
K562 = system: K562
MDA-MB-435 = system: MDA-MB-435
A549 = system: A549
DU-145 = system: DU-145
HCC 2998 = system: HCC 2998
OVCAR-3 = system: OVCAR-3
KM12 = system: KM12
SR = system: SR
HOP-92 = system: HOP-92
UACC-257 = system: UACC-257
SK-MEL-5 = system: SK-MEL-5
NCI-H23 = system: NCI-H23
MDA-N = system: MDA-N
MOLT-4 = system: MOLT-4
NCI/ADR-RES = system: NCI/ADR-RES
CCRF-CEM = system: CCRF-CEM
HCT-116 = system: HCT-116
SF-268 = system: SF-268
M14 = system: M14
NCI-H522 = system: NCI-H522
OVCAR-8 = system: OVCAR-8
NCI-H460 = system: NCI-H460
UO-31 = system: UO-31
SNB-19 = system: SNB-19
OVCAR-4 = system: OVCAR-4
RPMI-8226 = system: RPMI-8226
MDA-MB-231 = system: MDA-MB-231
BT-549 = system: BT-549
HL-60 = system: HL-60
U-251 = system: U-251
SW-620 = system: SW-620
LOX IMVI = system: LOX IMVI
SN12C = system: SN12C
UACC-62 = system: UACC-62
SK-OV-3 = system: SK-OV-3
T47D = system: T47D
SK-MEL-28 = system: SK-MEL-28
SF-295 = system: SF-295
HCT-15 = system: HCT-15
786-0 = system: 786-0
HOP-62 = system: HOP-62
MCF7 = system: MCF7
SF-539 = system: SF-539
TK-10 = system: TK-10
OVCAR-5 = system: OVCAR-5
IGROV-1 = system: IGROV-1
NCI-H226 = system: NCI-H226
SK-MEL-2 = system: SK-MEL-2
EKVX = system: EKVX
ACHN = system: ACHN
CAKI-1 = system: CAKI-1
A498 = system: A498
SNB-75 = system: SNB-75
Malme-3M = system: Malme-3M
Hs-578T = system: Hs-578T

For `COc1ccc(-c2nc(-c3cnccn3)n(COCCO)n2)cc1`, the GI50 (RXF 393) was > 100 µM (inactive), the GI50 (COLO 205) was > 100 µM (inactive) and the GI50 (PC-3) was > 100 µM (inactive). The GI50 (HT-29) was > 100 µM (inactive), the GI50 (K562) was > 100 µM (inactive) and the GI50 (MDA-MB-435) was > 100 µM (inactive). The GI50 (A549) was > 100 µM (inactive), the GI50 (DU-145) was > 100 µM (inactive) and the GI50 (HCC 2998) was > 100 µM (inactive). The GI50 (OVCAR-3) was > 100 µM (inactive), the GI50 (KM12) was > 100 µM (inactive) and the GI50 (SR) was > 100 µM (inactive). For the same molecule, the GI50 (HOP-92) was > 100 µM (inactive), the GI50 (UACC-257) was > 100 µM (inactive) and the GI50 (SK-MEL-5) was > 100 µM (inactive). The GI50 (NCI-H23) was > 100 µM (inactive), the GI50 (MDA-N) was > 100 µM (inactive) and the GI50 (MOLT-4) was > 100 µM (inactive). For the same molecule, the GI50 (NCI/ADR-RES) was > 100 µM (inactive), the GI50 (CCRF-CEM) was > 100 µM (inactive) and the GI50 (HCT-116) was > 100 µM (inactive). For the same molecule, the GI50 (SF-268) was > 100 µM (inactive), the GI50 (M14) was > 100 µM (inactive) and the GI50 (NCI-H522) was > 100 µM (inactive). The GI50 (OVCAR-8) was > 100 µM (inactive), the GI50 (NCI-H460) was > 100 µM (inactive) and the GI50 (UO-31) was > 100 µM (inactive). For the same molecule, the GI50 (SNB-19) was > 100 µM (inactive), the GI50 (OVCAR-4) was > 100 µM (inactive) and the GI50 (RPMI-8226) was > 100 µM (inactive). The GI50 (MDA-MB-231) was > 100 µM (inactive), the GI50 (BT-549) was > 100 µM (inactive) and the GI50 (HL-60) was > 100 µM (inactive). The GI50 (U-251) was > 100 µM (inactive), the GI50 (SW-620) was > 100 µM (inactive) and the GI50 (LOX IMVI) was > 100 µM (inactive). The GI50 (SN12C) was > 100 µM (inactive), the GI50 (UACC-62) was > 100 µM (inactive) and the GI50 (SK-OV-3) was > 100 µM (inactive). For the same molecule, the GI50 (T47D) was > 100 µM (inactive), the GI50 (SK-MEL-28) was > 100 µM (inactive) and the GI50 (SF-295) was > 100 µM (inactive). The GI50 (HCT-15) was over 100 µM, the GI50 (786-0) was > 100 µM (inactive) and the GI50 (HOP-62) was > 100 µM (inactive). The GI50 (MCF7) was > 100 µM (inactive), the GI50 (SF-539) was > 100 µM (inactive) and the GI50 (TK-10) was > 100 µM (inactive). For the same molecule, the GI50 (OVCAR-5) was > 100 µM (inactive) and the GI50 (IGROV-1) was > 100 µM (inactive).

With `O=Nn1c2ccccc2c2ccccc21` the GI50 (RXF 393) was 37.7 µM (inactive), the GI50 (COLO 205) was 14.1 µM (inactive) and the GI50 (NCI-H226) was 55.5 µM (inactive). The GI50 (PC-3) was 42.8 µM (inactive), the GI50 (SK-MEL-2) was 61.7 µM (inactive) and the GI50 (HT-29) was 50.2 µM (inactive). The GI50 (K562) was 58.9 µM (inactive), the GI50 (MDA-MB-435) was 77.4 µM (inactive) and the GI50 (A549) was 17.5 µM (inactive). For the same molecule, the GI50 (DU-145) was > 100 µM (inactive), the GI50 (HCC 2998) was 17.1 µM (inactive) and the GI50 (OVCAR-3) was 71.9 µM (inactive). The GI50 (KM12) was 34.3 µM (inactive), the GI50 (HOP-92) was 66.2 µM (inactive) and the GI50 (UACC-257) was 61.2 µM (inactive). For the same molecule, the GI50 (SK-MEL-5) was 63.1 µM (inactive), the GI50 (EKVX) was 22.4 µM (inactive) and the GI50 (NCI-H23) was 58.2 µM (inactive). For the same molecule, the GI50 (ACHN) was 56.2 µM (inactive), the GI50 (CAKI-1) was 44.4 µM (inactive) and the GI50 (MOLT-4) was 55.1 µM (inactive). The GI50 (NCI/ADR-RES) was 52.8 µM (inactive), the GI50 (A498) was 23.8 µM (inactive) and the GI50 (CCRF-CEM) was 45.7 µM (inactive). The GI50 (HCT-116) was 85.9 µM (inactive), the GI50 (SF-268) was > 100 µM (inactive) and the GI50 (M14) was 74.1 µM (inactive). The GI50 (NCI-H522) was 38.6 µM (inactive), the GI50 (OVCAR-8) was > 100 µM (inactive) and the GI50 (NCI-H460) was 9.86 µM (inactive). The GI50 (UO-31) was 34.4 µM (inactive), the GI50 (SNB-19) was 88.9 µM (inactive) and the GI50 (OVCAR-4) was 90.8 µM (inactive). For the same molecule, the GI50 (RPMI-8226) was 70.1 µM (inactive), the GI50 (MDA-MB-231) was 65.2 µM (inactive) and the GI50 (SNB-75) was 75 µM (inactive). For the same molecule, the GI50 (BT-549) was 73.1 µM (inactive), the GI50 (HL-60) was 59.3 µM (inactive) and the GI50 (U-251) was 92.9 µM (inactive). The GI50 (SW-620) was 66.8 µM (inactive), the GI50 (LOX IMVI) was 48.1 µM (inactive) and the GI50 (SN12C) was > 100 µM (inactive). The GI50 (UACC-62) was 45.7 µM (inactive), the GI50 (SK-OV-3) was 84.5 µM (inactive) and the GI50 (T47D) was 66.5 µM (inactive). For the same molecule, the GI50 (SK-MEL-28) was > 100 µM (inactive), the GI50 (SF-295) was 42.9 µM (inactive) and the GI50 (HCT-15) was 35.1 µM. The GI50 (786-0) was 95.1 µM (inactive), the GI50 (HOP-62) was > 100 µM (inactive) and the GI50 (Malme-3M) was 93.3 µM (inactive). For the same molecule, the GI50 (MCF7) was 45 µM (inactive), the GI50 (SF-539) was > 100 µM (inactive) and the GI50 (TK-10) was 70.5 µM (inactive). The GI50 (OVCAR-5) was > 100 µM (inactive), the GI50 (Hs-578T) was 46.2 µM (inactive) and the GI50 (IGROV-1) was 85.3 µM (inactive).

`CC1(C)OC2C(O)CN3CCS[C@H]3C2O1` (some centres not stated) was tested, and the GI50 (RXF 393) was > 100 µM (inactive), the GI50 (COLO 205) was > 100 µM (inactive) and the GI50 (NCI-H226) was > 100 µM (inactive). The GI50 (PC-3) was > 100 µM (inactive), the GI50 (SK-MEL-2) was > 100 µM (inactive) and the GI50 (HT-29) was > 100 µM (inactive). The GI50 (K562) was > 100 µM (inactive), the GI50 (MDA-MB-435) was > 100 µM (inactive) and the GI50 (A549) was > 100 µM (inactive). For the same molecule, the GI50 (DU-145) was > 100 µM (inactive), the GI50 (HCC 2998) was > 100 µM (inactive) and the GI50 (OVCAR-3) was > 100 µM (inactive). For the same molecule, the GI50 (KM12) was > 100 µM (inactive), the GI50 (SR) was > 100 µM (inactive) and the GI50 (HOP-92) was > 100 µM (inactive). The GI50 (UACC-257) was > 100 µM (inactive), the GI50 (SK-MEL-5) was > 100 µM (inactive) and the GI50 (EKVX) was > 100 µM (inactive). For the same molecule, the GI50 (NCI-H23) was > 100 µM (inactive), the GI50 (ACHN) was > 100 µM (inactive) and the GI50 (CAKI-1) was > 100 µM (inactive). For the same molecule, the GI50 (MOLT-4) was > 100 µM (inactive), the GI50 (NCI/ADR-RES) was > 100 µM (inactive) and the GI50 (A498) was > 100 µM (inactive). The GI50 (CCRF-CEM) was > 100 µM (inactive), the GI50 (HCT-116) was > 100 µM (inactive) and the GI50 (SF-268) was > 100 µM (inactive). For the same molecule, the GI50 (M14) was > 100 µM (inactive), the GI50 (NCI-H522) was > 100 µM (inactive) and the GI50 (OVCAR-8) was > 100 µM (inactive). The GI50 (NCI-H460) was > 100 µM (inactive), the GI50 (UO-31) was > 100 µM (inactive) and the GI50 (SNB-19) was > 100 µM (inactive). The GI50 (OVCAR-4) was > 100 µM (inactive), the GI50 (RPMI-8226) was > 100 µM (inactive) and the GI50 (MDA-MB-231) was > 100 µM (inactive). For the same molecule, the GI50 (SNB-75) was > 100 µM (inactive), the GI50 (BT-549) was > 100 µM (inactive) and the GI50 (HL-60) was > 100 µM (inactive). The GI50 (U-251) was > 100 µM (inactive), the GI50 (SW-620) was > 100 µM (inactive) and the GI50 (LOX IMVI) was > 100 µM (inactive). For the same molecule, the GI50 (UACC-62) was > 100 µM (inactive), the GI50 (SK-OV-3) was > 100 µM (inactive) and the GI50 (T47D) was > 100 µM (inactive). The GI50 (SK-MEL-28) was > 100 µM (inactive), the GI50 (SF-295) was > 100 µM (inactive) and the GI50 (HCT-15) was over 100 µM. For the same molecule, the GI50 (786-0) was > 100 µM (inactive), the GI50 (HOP-62) was > 100 µM (inactive) and the GI50 (Malme-3M) was > 100 µM (inactive). The GI50 (TK-10) was > 100 µM (inactive), the GI50 (OVCAR-5) was > 100 µM (inactive) and the GI50 (Hs-578T) was > 100 µM (inactive). The GI50 (IGROV-1) was > 100 µM (inactive).
